Source: US11879137B2, “Treatment of type 1 diabetes and autoimmune diseases or disorders” (THE CHILDREN'S MEDICAL CENTER CORPORATION, priority 2017, dated 2024)

How the values were obtained:
PD-L1 on CD34+ cells [1] = assay: 7-day culture of CD34+ cells with PGE2 and hematopoietic cytokines (STFIA medium), PD-L1+CD34+ by FACS; type: cell-based, human; details: for increase in the percentage of PD-L1+CD34+ cells: 7 days, STFIA medium, PGE2 10 μM
Experimental: FIGS. 18A-18J show effects of human PGE2-modulated and cytokine-treated CD34^+ cells. […] (FIG. 18C) Effect of PGE2 pulsing on CD34^+ cells cultured for 0, 24 h, 72 h and 6 days on PD-L1 expression on CD34^+ cells. (FIG. 18D-18E) Bar graphs showing an increase in the number of PD-L1^+CD34^+ cells and fold increase in cell number after 7 days of culture with PGE2 supplemented with cytokines. (FIG. 18F-18G) Upregulation of PD-L1 expression following culture with PGE2 (shown as percentage) on CD34^+ cells was not altered by the freeze/thawing process. (FIG. 18H) PGE2-modulated CD34^+ cells abrogate the IFN-γ autoimmune response to insulin-associated 2 (I-A2) autoantigen in vitro, as measured via the quantification of IFN-γ-producing cells in an Elispot assay; […]. (FIG. 18I) PGE2-modulated CD34^+ cells and PGE2-modulated CD34^+ cells cultured for 7 days in STFIA media abrogate the IFN-γ autoimmune response towards insulin-associated 2 (I-A2) autoantigen in vitro, as measured via the quantification of IFN-γ-producing cells in an Elispot assay, even when added at low dose. (FIG. 18J) PGE2-modulated CD34^+ cells abrogate the anti-CD3/CD28-stimulated PBMC response in vitro as measured via the quantification of IFN-γ-producing cells in an Elispot assay. […] Abbreviations: SCF, stem cell factor; TPO, thrombopoietin; hFGF-1, human fibroblast growth factor 1; IGFBP2, insulin-like growth factor-binding protein 2; Angptl3, angiopoietin-like 3; PBMCs, peripheral blood mononuclear cells.
Pharmacological modulation of human CD34+ cells. […] Data were analyzed using FlowJo software version 8.7.3 (Treestar, Ashland, OR). […]
PGE2 highly augments PD-L1 expression in human HSPCs when supplemented with hematopoietic cytokine. […] PD-L1+ HSPCs were then quantified by FACS analysis at different time points post-culture. […]

PD-L1 on CD34+ cells [2] = assay: Confocal imaging of PD-L1 on PGE2-treated CD34+ cells; type: cell-based, human; details: vs untreated CD34+ cells
Experimental: Immunofluorescence and confocal microscopy. Regulatory CD34+(PGE2-modulated) cells and unmodulated CD34+ cells isolated from peripheral blood of healthy controls were fixed in 4% PFA for 1h at 4 C, washed 3 times for 20 min in PBS, and cells were counterstained with blue fluorescent DAPI (1:10000, BioLegend, San Diego, CA) and anti-human PD-L1 (BD Biosciences). Cells were photographed under a 63× objective. Images were captured on a Leica SPSX system with an upright DM6000 microscope and AIR confocal microscope (Nikon Instruments, Melville, NY). Histology was evaluated by at least two expert pathologist (9).
Prostaglandin library screening. PGE2 has been described as a small molecule known to enhance the homing and engraftment of HSPCs. It was therefore sought to screen all known types of prostaglandins using the Prostaglandin Screening Library II, which contains 64 small molecules. Each small molecule contained in the library was first screened for its capacity to upregulate PD-L1 in human CD34+ cells isolated from T1D patients (FIG. 17A-17B). […] Using FACS analysis, the MFI (mean fluorescence intensity) of PD-L1 expression was calculated following treatment with each small molecule used to modulate CD34+ cells as compared to untreated/unmodulated CD34+ cells (FIG. 17B). […]

## CCCCC[C@H](O)/C=C/[C@H]1[C@H](O)CC(=O)[C@@H]1C/C=C\CCCC(=O)O [PGE2, prostaglandin E2]
PD-L1 on CD34+ cells [1]; HSPCs from T1D
  increase in the percentage of PD-L1+CD34+ cells: ~5 fold
PD-L1 on CD34+ cells [1]; fresh vs frozen HSPCs, 7 days STFIA media pulsed with PGE2
  PD-L1 expression pre- and post-cryopreservation: Sustained and conserved
PD-L1 on CD34+ cells [1]; healthy control patients
  increase in the percentage of PD-L1+CD34+ cells: ~2 fold
PD-L1 on CD34+ cells [2]
  PD-L1 surface expression by confocal imaging: upregulated
